Reference: PubChem BioAssay (NCI)
“And” between values parts separate entries of the source, which are not always exact repeats. Equal values may be shown once.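 Step 1: Grow cells in 96-well plates. Step 2: Expose to compound for 48 hours at 5 concentrations. Step 3: Interpolate endpoints linearly; if unreached, use highest concentration. Here, GI50 denotes the concentration required for 50% inhibition of growth. TGI is the concentration that stops growth completely.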

Experiments:
Experiment in all cases: growth of human tumour cells (NCI), 48 h
CCRF-CEM leukemia = test system: CCRF-CEM leukemia
HOP-92 NSCLC = test system: HOP-92 NSCLC
K-562 leukemia = test system: K-562 leukemia
MALME-3M melanoma = test system: MALME-3M melanoma
MDA-MB-231 breast = test system: MDA-MB-231 breast
NCI-H23 lung = test system: NCI-H23 lung
NCI-H522 lung = test system: NCI-H522 lung
SK-MEL-5 melanoma = test system: SK-MEL-5 melanoma
SW-620 colon = test system: SW-620 colon
U251 CNS = test system: U251 CNS

Compound	TGI (CCRF-CEM leukemia) [µM]	TGI (HOP-92 NSCLC) [µM]	TGI (K-562 leukemia) [µM]	TGI (MALME-3M melanoma) [µM]	TGI (MDA-MB-231 breast) [µM]	TGI (NCI-H23 lung) [µM]	TGI (NCI-H522 lung) [µM]	TGI (SK-MEL-5 melanoma)	TGI (SW-620 colon) [µM]	TGI (U251 CNS) [µM]	GI50 (CCRF-CEM leukemia) [µM]	GI50 (HOP-92 NSCLC) [µM]	GI50 (K-562 leukemia) [nM]	GI50 (MALME-3M melanoma) [µM]	GI50 (NCI-H23 lung) [µM]	GI50 (NCI-H522 lung) [µM]	GI50 (SK-MEL-5 melanoma) [nM]	GI50 (SW-620 colon) [µM]	GI50 (U251 CNS) [µM]
COc1ccc2c(c1)/c(=C/C#N)c1c3ccccc3[n+](C)n21	13.1	5.89	> 69.8	14.3	64.4	45.4	20.4	> 44.8 µM	> 39.2	40.8	–	–	–	–	–	–	–	–	–
C(=N\NC1=NCCN1)/c1ccc2ccccc2c1	41.8	13.3	32.6	28.3	35.3	51.1	29.6	25.9 µM	32.6	29.8	–	–	–	–	–	–	–	–	–
COc1cccc(OC)c1NC(=O)C(=O)Nn1c(NNC(=O)c2ccncc2)nc2ccccc2c1=O	> 100	> 100	> 100	> 100	> 100	> 100	> 100	> 100 µM	> 100	> 100	–	–	–	–	–	–	–	–	–
CCC(Nc1ncnc2nc[nH]c12)C(=O)O (stereo unspecified)	> 100	> 100	> 100	> 100	> 100	> 100	> 100	> 100 µM	> 100	> 100	–	–	–	–	–	–	–	–	–
CN(C)CC1CCC/C(=C\c2ccc(OC(=O)/C=C/c3ccc(Cl)cc3)cc2)C1=O (stereo unspecified)	3.39	4.34	4.04	16.3	21	14.1	1.91	9.46 µM	6.44	9.97	–	–	–	–	–	–	–	–	–
O=C1Nc2ccc(Br)cc2/C1=N/N1C(=O)C(=O)N(C2CCCCC2)C1=S	16.6	53.7	12.6	22.3	25.5	20.3	–	16.7 µM	14.8	15.9	–	–	–	–	–	–	–	–	–
O=c1/c(=C/c2ccccn2)sc2nc3cc4c(cc3n12)OCCO4	> 100	> 100	> 100	> 100	> 100	> 100	> 100	> 100 µM	> 100	> 100	–	–	–	–	–	–	–	–	–
CSc1nc(NCc2ccccc2)c2cnn(COCCO)c2n1	> 100	> 100	> 100	> 100	> 100	> 100	> 100	> 100 µM	> 100	> 100	–	–	–	–	–	–	–	–	–
O=S(=O)(/N=C(\NO)Nc1ccc(Cl)cc1)c1cc2ccccc2s1	87.5	38.8	> 100	29.6	34.8	30.5	27.2	30.1 µM	82	29.1	–	–	–	–	–	–	–	–	–
COC(=O)c1c2c(cc3c1CC1(Cc4ccccc4C1)C3)CCC2	40.9	> 100	24.3	67.2	44.9	> 100	35.2	31.7 µM	39.7	48.6	–	–	–	–	–	–	–	–	–
Cc1cc(C)c2c(n1)S(=O)(=O)N(CCCN1CCN(c3cccc(Cl)c3)CC1)/C(=C(\O)c1ccc(Br)cc1)C2=O	> 100	59.6	> 100	> 100	> 100	> 100	> 100	39.7 µM	> 100	> 100	–	–	–	–	–	–	–	–	–
O=C(NC1C/C(=N/O)c2c(Br)sc(Br)c21)C(F)(F)F (stereo unspecified)	48.5	32.9	38.4	> 100	30.9	> 100	> 100	54.4 µM	> 100	39.2	–	–	–	–	–	–	–	–	–
CSc1ncc2c(n1)-c1ccccc1OC2	> 100	86.9	–	–	> 100	> 100	> 100	> 100 µM	> 100	> 100	–	–	–	–	–	–	–	–	–
COc1ccc([I+]c2ccc(OC)cc2)cc1	> 100	> 100	> 100	> 100	> 100	> 100	> 100	20.7 µM and 6.76 µM	> 100	> 100	4.98	3.27	2740	13.8	4.85	38.3	1800	6.66	7.58
N#CC1=C(N)N(/N=C/c2ccco2)C(c2ccco2)C1(C#N)C#N (stereo unspecified)	19.2	33.5	85.1	43.4	38.6	35.8	31.1	29.3 µM	24.5	36.1	–	–	–	–	–	–	–	–	–
CCNC(=S)NNC(=O)c1ccccc1Nc1ccccc1C(=O)NNC(=S)NCC	> 100	> 100	> 100	> 100	> 100	> 100	> 100	> 100 µM	> 100	> 100	–	–	–	–	–	–	–	–	–
